Experimental data published in PubChem BioAssay (NCI).
Where “and” joins values, the source holds several entries; their conditions need not be identical. Equal entries are not always repeated.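 Results reflect a 48-hour exposure of cells in 96-well plates to compound at five concentrations. Abbreviation: GI50, concentration required for 50% inhibition of growth. The concentration for full growth arrest is given as TGI.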

Legend:
Test in all cases: DTP human tumour cell line panel, 48 h
[1] = system: A549 NSCLC
[2] = system: CAKI-1 renal
[3] = system: EKVX NSCLC
[4] = system: HCC-2998 colon
[5] = system: HOP-62 NSCLC
[6] = system: MDA-MB-435
[7] = system: OVCAR-3 ovarian
[8] = system: SF-268 CNS
[9] = system: SF-295 CNS
[10] = system: SK-OV-3 ovarian

SMILES	TGI [1]	TGI [2] [µM]	TGI [3]	TGI [4] [µM]	TGI [5] [µM]	TGI [6]	TGI [7]	TGI [8] [µM]	TGI [9] [µM]	TGI [10] [µM]	GI50 [1]	GI50 [2] [µM]	GI50 [3]	GI50 [4] [µM]	GI50 [5]	GI50 [6] [µM]	GI50 [7] [µM]	GI50 [8] [µM]	GI50 [9] [µM]	GI50 [10]
COc1ccc2c(c1)[n+]([O-])c(/C(C)=N/NC(N)=S)c(C)[n+]2[O-]	> 100 µM	> 100	> 100 µM	> 66.7	> 100	> 100 µM	> 95.7 µM	> 100	> 100	> 100	–	–	–	–	–	–	–	–	–	–
CCCCCCCC(=O)SCC/C=C/[C@@H]1CC(=O)NCc2cccc(n2)C2=N[C@@](C)(CS2)C(=O)N[C@@H](C(C)C)C(=O)O1	> 33.3 µM	–	> 33.3 µM	0.324	> 33.3	> 12.5 µM	1.07 µM	> 28	0.546	0.596	0.0362 µM	0.174	0.0869 µM	0.0528	0.0252 µM	0.0292	0.0877	0.0986	0.0623	0.0284 µM
C[C@@]1([C@H](OC(=O)c2cccc3ccccc23)C(N)=O)CO1	> 20.7 µM	> 100	15.7 µM	18.2	7.29	1.74 µM	> 100 µM	> 43	9.28	19.7	2.12 µM	5.56	4.53 µM	4.51	0.978 µM	–	21.6	4.62	0.427	6.35 µM
CC(C)(C)n1nc(C2CC2)cc1NC(=O)Nc1ccc(Cl)cc1	> 100 µM	> 100	> 100 µM	> 100	> 100	> 100 µM	> 100 µM	> 100	> 100	> 100	–	–	–	–	–	–	–	–	–	–
Cc1ccc(C(=O)Nc2ccc(CN3CCN(C)CC3)c(C(F)(F)F)c2)cc1C#Cc1cnc(N)c2ccc(C#N)cc12	12.8 µM	8.48	> 50 µM	> 50	22.9	1.65 µM	19.2 µM	17.2	> 50	12.8	0.917 µM	0.0865	9.46 µM	9.41	1.7 µM	0.0259	1.25	0.206	8.85	0.0981 µM
Oc1ccccc1/C=N/Nc1nc2ccccc2s1	> 100 µM	> 100	> 100 µM	> 100	> 100	> 100 µM	34.7 µM	> 100	> 100	> 100	6.52 µM	2.95	8.73 µM	5.37	5.56 µM	> 100	2.46	3.8	5.3	15.2 µM
COc1ccc(/C=C(/C(=O)N2CCN(c3ccc(C)cc3)CC2)c2cc(OC)c(OC)c(OC)c2)cc1N	> 100 µM	> 100	> 100 µM	> 100	> 100	–	0.921 µM	> 100	> 100	> 100	0.426 µM	0.465	0.628 µM	0.376	0.474 µM	0.108	0.239	0.43	0.287	0.755 µM
CC(C)C[C@H](NC(=O)[C@H](Cc1ccccc1)NC(=O)c1cnccn1)B(O)O	5.02 µM and 0.615 µM	–	2.06 µM and 0.417 µM and 2.33 µM	–	–	< 0.01 µM and 0.00186 µM	< 0.0124 µM and 0.00238 µM	–	–	–	< 0.0112 µM and 0.00362 µM	0.00148	< 0.0175 µM and 0.00419 µM	0.000597	< 0.0131 µM and 0.00317 µM	0.000748	0.00104	0.00288	0.00215	0.0187 µM and 0.0085 µM
C=C(C)[C@@H]1CC[C@]2(C(=O)N3CCN(C)CC3)CC[C@]3(C)[C@H](CC[C@@H]4[C@@]5(C)C/C(=C/c6ccncc6)[C@H](O)C(C)(C)[C@@H]5CC[C@]43C)[C@@H]12	> 100 µM	25.5	43.2 µM	13.1	24.7	33.9 µM	17.2 µM	57.6	25.5	96.5	5.2 µM	5.82	6.04 µM	3.36	10.1 µM	8.29	4.82	9.05	7.2	12 µM
COc1cc(/C=C/C(=O)c2ccc(F)cc2)ccc1OCCCCOc1cc2c(cc1OC)C(=O)N1CCCC1C=N2 (stereo not given)	> 21.9 µM	25.6	> 34.9 µM	9.61	12.5	8.01 µM	2 µM	12.5	–	> 44.5	2.46 µM	1.12	4.05 µM	0.674	0.952 µM	2.71	0.808	1.03	0.707	1.67 µM
CC/C=C\C[C@H](O)C/C=C1/C(=O)C=C[C@@H]1C/C=C\CCCC(=O)OCCS(=O)(=O)c1ccccc1	25.8 µM	13.7	30.5 µM	3.64	10.5	8.26 µM	12 µM	22.9	14.1	27.7	6.04 µM	3.86	12.2 µM	1.99	3.47 µM	2.51	3.19	4.37	3.74	6.38 µM
COc1ccc(-c2cc(=O)c3c(OC)c(O)c(OC)cc3o2)cc1	> 100 µM	> 100	> 100 µM	> 100	> 100	> 100 µM	> 100 µM	> 100	> 100	> 100	–	–	–	–	–	–	–	–	–	–
CS(=O)(=O)c1nccc(-c2c(-c3cccc(OCc4ccccc4)c3)nc3sccn23)n1	> 100 µM	> 100	> 100 µM	8.36	> 100	> 100 µM	> 100 µM	> 100	> 100	> 100	> 71.1 µM	4.58	26.4 µM	3.49	> 80.9 µM	13.3	14.4	19.1	> 100	23.3 µM
